Two molecules from ChEMBL document CHEMBL2074523, “Hepatic uptake of cholecystokinin octapeptide by organic anion-transporting polypeptides OATP4 and OATP8 of rat and human liver” (Gastroenterology, 2001) can be followed below.

The target in data set [1] is T1, Solute carrier organic anion transporter family member 1B3 (OATP1B3) (Homo sapiens, UniProt Q9NPD5).
T1 sequence (Q9NPD5 whole entry): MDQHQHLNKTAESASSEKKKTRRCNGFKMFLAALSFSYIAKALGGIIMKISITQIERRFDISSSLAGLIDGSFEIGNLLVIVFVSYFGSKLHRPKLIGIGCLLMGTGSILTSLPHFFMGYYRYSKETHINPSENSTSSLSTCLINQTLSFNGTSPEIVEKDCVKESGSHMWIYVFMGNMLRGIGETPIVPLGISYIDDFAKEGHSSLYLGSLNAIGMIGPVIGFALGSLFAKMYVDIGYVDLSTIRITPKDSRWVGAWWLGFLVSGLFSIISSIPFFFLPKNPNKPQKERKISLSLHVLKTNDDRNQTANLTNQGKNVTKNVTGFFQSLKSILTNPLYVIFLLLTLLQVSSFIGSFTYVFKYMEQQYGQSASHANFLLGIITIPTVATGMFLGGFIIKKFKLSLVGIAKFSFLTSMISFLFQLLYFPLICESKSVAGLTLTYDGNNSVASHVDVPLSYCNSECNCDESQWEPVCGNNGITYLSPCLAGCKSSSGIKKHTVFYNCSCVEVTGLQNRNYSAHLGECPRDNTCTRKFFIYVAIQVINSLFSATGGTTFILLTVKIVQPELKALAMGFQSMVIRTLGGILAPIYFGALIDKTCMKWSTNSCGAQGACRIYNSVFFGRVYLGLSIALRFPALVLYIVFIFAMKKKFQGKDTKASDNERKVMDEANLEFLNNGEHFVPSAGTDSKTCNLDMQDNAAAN
The data set is described as follows: (§1) TP_TRANSPORTER: uptake in Xenopus laevis oocytes. The note with it: Xenopus laevis oocytes expressing OATP1B3 (SLCO1B3).

Substrate in data set [2]: CSCC[C@H](NC(=O)[C@H](Cc1ccc(OS(=O)(=O)O)cc1)NC(=O)[C@@H](N)CC(=O)O)C(=O)NCC(=O)N[C@@H](Cc1c[nH]c2ccccc12)C(=O)N[C@@H](CCSC)C(=O)N[C@@H](CC(=O)O)C(=O)N[C@@H](Cc1ccccc1)C(N)=O
The description is as §1. It is filed as functional, cell-based, Oocyte.

As to `CSCC[C@H](NC(=O)[C@H](Cc1ccc(OS(=O)(=O)O)cc1)NC(=O)[C@@H](N)CC(=O)O)C(=O)NCC(=O)N[C@@H](Cc1c[nH]c2ccccc12)C(=O)N[C@@H](CCSC)C(=O)N[C@@H](CC(=O)O)C(=O)N[C@@H](Cc1ccccc1)C(N)=O` [SINCALIDE], the Km in data set [1] was determined as 11.1 µM.

B1: Solute carrier organic anion transporter family member 1B2 (Rattus norvegicus) (protein)
chain: MDHTQQSRKAAEAQPSRSKQTRFCDGFKLFLAALSFSYICKALGGVVMKSSITQIERRFDIPSSISGLIDGGFEIGNLLVIVFVSYFGSKLHRPKLIGIGCFIMGIGSILTALPHFFMGYYKYAKENDIGSLGNSTLTCFINQMTSPTGPSPEIVEKGCEKGLKSHMWIYVLMGNMLRGIGETPIVPLGISYLDDFAKEGHTSMHLGTLHTIAMIGPILGFIMSSVFAKIYVDVGYVDLNSVRITPNDARWVGAWWLSFIVNGLLCITSSIPFFFLPKIPKRSQEERKNSVSLHAPKTDEEKKHMTNLTKQEEQDPSNMTGFLRSLRSILTNEIYVIFLILTLLQVSGFIGSFTYLFKFIEQQFGRTASQANFLLGIITIPTMATAMFLGGYIVKKFKLTSVGIAKFVFFTSSVAYAFQFLYFPLLCENKPFAGLTLTYDGMNPVDSHIDVPLSYCNSDCSCDKNQWEPICGENGVTYISPCLAGCKSFRGDKKPNNTEFYDCSCISNSGNNSAHLGECPRYKCKTNYYFYIILQVTVSFFTAMGSPSLILILMKSVQPELKSLAMGFHSLIIRALGGILAPIYYGAFIDRTCIKWSVTSCGKRGACRLYNSRLFGFSYLGLNLALKTPPLFLYVVLIYFTKRKYKRNDNKTLENGRQFTDEGNPDSVNKNGYYCVPYDEQSNETPL
On to B1, for which the Km in data set [2] was determined as 14.9 µM.

Usually Km stands for the concentration of substrate that gives half-maximal velocity.
